# Measurements reported in ChEMBL document CHEMBL4406898, “Dual mode of binding of anti cancer drug epirubicin to G-quadruplex [d-(TTAGGGT)]4 containing human telomeric DNA sequence induces thermal stabilization” (Bioorg Med Chem, 2019).
# Active and inactive are the calls of the source. The rule behind the calls is not given here.
# Experiments:
# Quadruplex DNA [1] = experiment: Binding affinity to human telomeric 7 G-quadruplex DNA assessed as binding constant Kb2 at 591 nanometer by spectrofluorimetric analysis; assay type: nucleic-acid assay
# Quadruplex DNA [2] = experiment: Binding affinity to human telomeric 7 G-quadruplex DNA assessed as hypochromic red shift by measuring difference in maximum absorption at 7 uM by absorption spectroscopy; assay type: nucleic-acid assay
# Quadruplex DNA [3] = experiment: Binding affinity to human telomeric 7 G-quadruplex DNA assessed as hypochromic red shift at 7 uM in presence of 100 mM NaCl by fluorescence spectral analysis; assay type: nucleic-acid assay
# Tetrahymena thermophila [4] = experiment: Binding affinity to Tetrahymena thermophila telomeric 22 G-quadruplex DNA assessed as binding constant Kb1
# Quadruplex DNA [5] = experiment: Binding affinity to human telomeric 7 G-quadruplex DNA assessed as binding constant Kb1 in 150 mM of KCl by fluorescence spectral analysis; assay type: nucleic-acid assay
# Quadruplex DNA [6] = experiment: Binding affinity to human telomeric 7 G-quadruplex DNA assessed as red shift in emission wavelength at 7 uM measured at 559.5 nanometer by fluorescence spectral analysis; assay type: nucleic-acid assay
# Quadruplex DNA [7] = experiment: Binding affinity to human telomeric 7 G-quadruplex DNA assessed as delta Tm3 compound:DNA ratio of 2:0 by CD spectroscopy analysis; assay type: nucleic-acid assay
# Quadruplex DNA [8] = experiment: Binding affinity to human telomeric 7 G-quadruplex DNA assessed as binding constant Kb1 in 50 mM of KCl by fluorescence spectral analysis; assay type: nucleic-acid assay
# Quadruplex DNA [9] = experiment: Binding affinity to human telomeric 7 G-quadruplex DNA incubated for 5 mins by UV-visible spectrophotometric analysis; assay type: nucleic-acid assay
# Quadruplex DNA [10] = experiment: Binding affinity to human telomeric 7 G-quadruplex DNA assessed as binding constant Kb2 in 100 mM KCl by fluorescence spectral analysis; assay type: nucleic-acid assay
# Quadruplex DNA [11] = experiment: Binding affinity to human telomeric 7 G-quadruplex DNA assessed as binding constant Kb2 in 150 mM of KCl by fluorescence spectral analysis; assay type: nucleic-acid assay
# Quadruplex DNA [12] = experiment: Binding affinity to human telomeric 7 G-quadruplex DNA assessed as binding constant Kb1 in absence of KCl by fluorescence spectral analysis; assay type: nucleic-acid assay
# Quadruplex DNA [13] = experiment: Effect on parallel topology of human telomeric 7 G-quadruplex DNA assessed as reduction in negative band ellipticity at compound:DNA ratio of 4:0 by CD spectroscopy relative to control; assay type: nucleic-acid assay; design: scale not given: the % may be the effect or the level left
# Quadruplex DNA [14] = experiment: Binding affinity to human telomeric 7 G-quadruplex DNA assessed as stern-volmer quenching constant in compound:DNA ratio of 1.2 to 3.8 by spectrofluorimetric analysis; assay type: nucleic-acid assay
# Quadruplex DNA [15] = experiment: Binding affinity to human telomeric 7 G-quadruplex DNA assessed as binding constant Kb1 in water by fluorescence spectral analysis; assay type: nucleic-acid assay
# Quadruplex DNA [16] = experiment: Binding affinity to human telomeric 7 G-quadruplex DNA at compound:DNA ratio of 2.3 to 6.1 by spectrofluorimetric analysis; assay type: nucleic-acid assay
# Quadruplex DNA [17] = experiment: Binding affinity to human telomeric 7 G-quadruplex DNA assessed as drug-DNA complex stoichiometry ratio of 2:1 at 7 uM by absorption spectroscopy; assay type: nucleic-acid assay
# Quadruplex DNA [18] = experiment: Binding affinity to human telomeric 7 G-quadruplex DNA assessed as fluorescence quenching at 7 uM in presence of 100 mM NaCl by fluorescence spectral analysis relative to control; assay type: nucleic-acid assay
# Quadruplex DNA [19] = experiment: Binding affinity to human telomeric 7 G-quadruplex DNA assessed as fluorescence quenching at 7 uM in presence of 100 to 150 mM K+ ion by fluorescence spectral analysis relative to control; assay type: nucleic-acid assay
# Quadruplex DNA [20] = experiment: Binding affinity to human telomeric 7 G-quadruplex DNA assessed as binding constant Kb2 in 50 mM of KCl by fluorescence spectral analysis; assay type: nucleic-acid assay
# Quadruplex DNA [21] = experiment: Binding affinity to human telomeric 7 G-quadruplex DNA assessed as melting temperature Tm1 compound:DNA ratio of 0:5 by CD spectroscopy analysis (reference value: 58.8 +/- 0.4 degreeC); assay type: nucleic-acid assay
# Quadruplex DNA [22] = experiment: Binding affinity to human telomeric 7 G-quadruplex DNA assessed as melting temperature Tm2 compound:DNA ratio of 2:0 by CD spectroscopy analysis (reference value: 64.3 +/- 0.2 degreeC); assay type: nucleic-acid assay
# Quadruplex DNA [23] = experiment: Binding affinity to human telomeric 22 G-quadruplex DNA assessed as binding constant in presence of NaCl by CD spectroscopy analysis; assay type: nucleic-acid assay
# Quadruplex DNA [24] = experiment: Binding affinity to human telomeric 7 G-quadruplex DNA assessed as binding constant Kb1 at 559.5 nanometer by spectrofluorimetric analysis; assay type: nucleic-acid assay
# Quadruplex DNA [25] = experiment: Binding affinity to human telomeric 7 G-quadruplex DNA assessed as hypochromic red shift at 7 uM in presence of 100 to 150 mM K+ ion by fluorescence spectral analysis; assay type: nucleic-acid assay
# Quadruplex DNA [26] = experiment: Binding affinity to human telomeric 7 G-quadruplex DNA assessed as melting temperature Tm1 compound:DNA ratio of 2:0 by CD spectroscopy analysis (reference value: 58.8 +/- 0.4 degreeC); assay type: nucleic-acid assay
# Quadruplex DNA [27] = experiment: Binding affinity to human telomeric 7 G-quadruplex DNA assessed as delta Tm1 compound:DNA ratio of 2:0 by CD spectroscopy analysis; assay type: nucleic-acid assay
# Quadruplex DNA [28] = experiment: Binding affinity to human telomeric 7 G-quadruplex DNA assessed as delta Tm1 compound:DNA ratio of 0:5 by CD spectroscopy analysis; assay type: nucleic-acid assay
# Quadruplex DNA [29] = experiment: Binding affinity to human telomeric 7 G-quadruplex DNA assessed as binding constant Kb2 in absence of KCl by fluorescence spectral analysis; assay type: nucleic-acid assay
# Quadruplex DNA [30] = experiment: Binding affinity to human telomeric 7 G-quadruplex DNA assessed as fluorescence quenching at 7 uM measured at 591 nanometer by fluorescence spectral analysis relative to control; assay type: nucleic-acid assay
# Quadruplex DNA [31] = experiment: Binding affinity to human telomeric 7 G-quadruplex DNA assessed as hypochromic red shift at 7 uM by absorption spectroscopy relative to untreated control; assay type: nucleic-acid assay
# Quadruplex DNA [32] = experiment: Binding affinity to human telomeric 7 G-quadruplex DNA assessed as binding constant Kb1 in 100 mM KCl by fluorescence spectral analysis; assay type: nucleic-acid assay
# Quadruplex DNA [33] = experiment: Binding affinity to human telomeric 7 G-quadruplex DNA assessed as delta Tm2 compound:DNA ratio of 2:0 by CD spectroscopy analysis; assay type: nucleic-acid assay
# Quadruplex DNA [34] = experiment: Binding affinity to human telomeric 7 G-quadruplex DNA assessed as binding constant Kb2 at 559.5 nanometer by spectrofluorimetric analysis; assay type: nucleic-acid assay
# Quadruplex DNA [35] = experiment: Effect on parallel topology of human telomeric 7 G-quadruplex DNA assessed as reduction in negative band ellipticity at compound:DNA ratio of 3:0 by CD spectroscopy relative to control; assay type: nucleic-acid assay; design: scale not given: the % may be the effect or the level left
# Quadruplex DNA [36] = experiment: Binding affinity to human telomeric 7 G-quadruplex DNA assessed as stern-volmer quenching constant in compound:DNA ratio of 0.4 to 1.0 by spectrofluorimetric analysis; assay type: nucleic-acid assay
# Quadruplex DNA [37] = experiment: Binding affinity to human telomeric 7 G-quadruplex DNA assessed as hypochromic red shift at 7 uM in presence of water by fluorescence spectral analysis; assay type: nucleic-acid assay
# Quadruplex DNA [38] = experiment: Binding affinity to human telomeric 7 G-quadruplex DNA assessed as fluorescence quenching at 7 uM in presence of water by fluorescence spectral analysis relative to control; assay type: nucleic-acid assay
# Quadruplex DNA [39] = experiment: Binding affinity to human telomeric 7 G-quadruplex DNA assessed as binding constant Kb2 in 100 mM NaCl by fluorescence spectral analysis; assay type: nucleic-acid assay
# Quadruplex DNA [40] = experiment: Binding affinity to human telomeric 7 G-quadruplex DNA assessed as binding constant Kb1 in 100 mM NaCl by fluorescence spectral analysis; assay type: nucleic-acid assay
# Quadruplex DNA [41] = experiment: Binding affinity to human telomeric 22 G-quadruplex DNA assessed as binding constant in presence of KCl by CD spectroscopy analysis; assay type: nucleic-acid assay
# Quadruplex DNA [42] = experiment: Binding affinity to human telomeric 7 G-quadruplex DNA assessed as drug-DNA complex stoichiometry ratio of 1:1 at 7 uM by absorption spectroscopy; assay type: nucleic-acid assay
# Quadruplex DNA [43] = experiment: Binding affinity to human telomeric 7 G-quadruplex DNA at compound:DNA ratio of 0.4 to 1.0 by spectrofluorimetric analysis; assay type: nucleic-acid assay
# Quadruplex DNA [44] = experiment: Effect on parallel topology of human telomeric 7 G-quadruplex DNA assessed as reduction in […] band ellipticity at 264 nm at compound:DNA ratio of 4:0 by CD spectroscopy relative to control; assay type: nucleic-acid assay; design: scale not given: the % may be the effect or the level left
# Quadruplex DNA [45] = experiment: Binding affinity to human telomeric 7 G-quadruplex DNA assessed as binding constant Kb2 in water by fluorescence spectral analysis; assay type: nucleic-acid assay
# Quadruplex DNA [46] = experiment: Binding affinity to human telomeric 7 G-quadruplex DNA assessed as binding constant Kb1 at 591 nanometer by spectrofluorimetric analysis; assay type: nucleic-acid assay
# Quadruplex DNA [47] = experiment: Binding affinity to human telomeric 7 G-quadruplex DNA assessed as fluorescence quenching at 7 uM measured at 559.5 nanometer by fluorescence spectral analysis relative to control; assay type: nucleic-acid assay
# Quadruplex DNA [48] = experiment: Binding affinity to human telomeric 7 G-quadruplex DNA assessed as fluorescence quenching at 7 uM by fluorescence spectral analysis; assay type: nucleic-acid assay
# Quadruplex DNA [49] = experiment: Binding affinity to human telomeric 7 G-quadruplex DNA assessed as melting temperature compound:DNA ratio of 2:0 to 4:0 by CD spectroscopy analysis; assay type: nucleic-acid assay
# Quadruplex DNA [50] = experiment: Binding affinity to human telomeric 7 G-quadruplex DNA assessed as quenching constant by spectrofluorimetric analysis; assay type: nucleic-acid assay
# Quadruplex DNA [51] = experiment: Binding affinity to human telomeric 7 G-quadruplex DNA assessed as melting temperature compound:DNA ratio of 1:0 by CD spectroscopy analysis; assay type: nucleic-acid assay
# Tetrahymena thermophila [52] = experiment: Binding affinity to Tetrahymena thermophila telomeric 22 G-quadruplex DNA assessed as binding constant Kb2
# Quadruplex DNA [53] = experiment: Binding affinity to human telomeric 7 G-quadruplex DNA assessed as red shift in emission wavelength at 7 uM measured at 591 nanometer by fluorescence spectral analysis; assay type: nucleic-acid assay
# Quadruplex DNA [54] = experiment: Binding affinity to human telomeric 7 G-quadruplex DNA assessed as change in melting temperature compound:DNA ratio of 2:0 by CD spectroscopy analysis; assay type: nucleic-acid assay
# Quadruplex DNA [55] = experiment: Binding affinity to human telomeric 7 G-quadruplex DNA assessed as melting temperature Tm3 compound:DNA ratio of 0:5 by CD spectroscopy analysis; assay type: nucleic-acid assay
# [56] = Self aggregation behaviour in phosphate buffer solution assessed as effect on absorption spectra at >10 uM by absorption spectroscopy; assay type: physicochemical
# Quadruplex DNA [57] = experiment: Binding affinity to human telomeric 7 G-quadruplex DNA by CD spectroscopy; assay type: nucleic-acid assay
smiles,measurement,setting,value
COc1cccc2c1C(=O)c1c(O)c3c(c(O)c1C2=O)C[C@@](O)(C(=O)CO)C[C@@H]3O[C@H]1C[C@H](N)[C@@H](O)[C@H](C)O1 [EPIRUBICIN],Kb,Quadruplex DNA [1],3.8 ×10⁶ /M
same,deltaA,Quadruplex DNA [2],9 nm
same,deltaA,Quadruplex DNA [3],1 nm
same,Kb,Tetrahymena thermophila [4],1.9 ×10⁶ /M
same,Kb,Quadruplex DNA [5],1.3 to 1.9 ×10⁶ /M
same,deltaA,Quadruplex DNA [6],8 nm
same,ΔTm,Quadruplex DNA [7],26.3 °C
same,Kb,Quadruplex DNA [8],2.7 ×10⁶ /M
same,Kb,Quadruplex DNA [9],2.3 ×10⁶ /M
same,Kb,Quadruplex DNA [10],4 ×10⁶ /M
same,Kb,Quadruplex DNA [11],4.6 ×10⁶ /M
same,Kb,Quadruplex DNA [12],1.8 ×10⁴ /M
same,Activity,Quadruplex DNA [13],59%
same,KSV,Quadruplex DNA [14],1.1 ×10⁶ /M
same,Kb,Quadruplex DNA [15],8.4 ×10⁴ /M
same,Kb,Quadruplex DNA [16],4.6 ×10⁵ /M
same,Activity,Quadruplex DNA [17],Active
same,Activity,Quadruplex DNA [18],39%
same,Activity,Quadruplex DNA [19],89%
same,Kb,Quadruplex DNA [20],3.8 ×10⁶ /M
same,Tm,Quadruplex DNA [21],68.1 °C
same,Tm,Quadruplex DNA [22],77.5 °C
same,Kb,Quadruplex DNA [23],2.5 ×10⁴ /M
same,Kb,Quadruplex DNA [24],2 ×10⁶ /M
same,deltaA,Quadruplex DNA [25],8 to 16 nm
same,Tm,Quadruplex DNA [26],70.4 °C
same,ΔTm,Quadruplex DNA [27],11.6 °C
same,ΔTm,Quadruplex DNA [28],9.3 °C
same,Kb,Quadruplex DNA [29],0.24 ×10⁴ /M
same,Activity,Quadruplex DNA [30],92%
same,Activity,Quadruplex DNA [31],47.6%
same,Kb,Quadruplex DNA [32],2.3 ×10⁶ /M
same,ΔTm,Quadruplex DNA [33],13.2 °C
same,Kb,Quadruplex DNA [34],4.6 ×10⁵ /M
same,Activity,Quadruplex DNA [35],90%
same,KSV,Quadruplex DNA [36],4.1 ×10⁵ /M
same,deltaA,Quadruplex DNA [37],0.5 nm
same,Activity,Quadruplex DNA [38],60%
same,Kb,Quadruplex DNA [39],7.3 ×10⁴ /M
same,Kb,Quadruplex DNA [40],3.5 ×10⁴ /M
same,Kb,Quadruplex DNA [41],3 to 3.6 ×10⁵ /M
same,Activity,Quadruplex DNA [42],Active
same,Kb,Quadruplex DNA [43],2 ×10⁶ /M
same,Activity,Quadruplex DNA [44],18%
same,Kb,Quadruplex DNA [45],53 ×10⁴ /M
same,Kb,Quadruplex DNA [46],2.7 ×10⁶ /M
same,Activity,Quadruplex DNA [47],93%
same,Activity,Quadruplex DNA [48],Active
same,Tm,Quadruplex DNA [49],70 °C
same,Kq,Quadruplex DNA [50],7.5 ×10¹⁴ /M/s
same,Tm,Quadruplex DNA [51],65 °C
same,Kb,Tetrahymena thermophila [52],2.3 ×10⁵ /M
same,deltaA,Quadruplex DNA [53],16 nm
same,ΔTm,Quadruplex DNA [54],15 °C
same,Tm,Quadruplex DNA [55],90.6 °C
same,Activity,[56],Active
same,Kb,Quadruplex DNA [57],1.9 ×10⁶ /M
